According to patent US5635379A, “D-2-alkyl-tryptophan and peptides containing same” (Deghenghi; Romano, priority 1990, dated 1997):

Key:
[1] = Stability of D-Trp and D-2-methyl-Trp in 1% solutions, peak area by HPLC; format: physicochemical; conditions: pH 2.2 citrate buffer, dark, helium (FIG. 1) and pH 5.4 acetate buffer, oxygen, constant light (FIG. 2)
GH release [2] = assay: GH-releasing activity i.v. in male rats anesthetized with ketamine and xilazine; format: in vivo, Sprague Dawley rats
Procedure: (§1) Male Sprague Dawley rats (Charles River, Calco, Italy) of 2-3 months of age were used. Rats were housed at 22 +2° C., with lighting cycle of 14 h light: 10 h dark (lights on from 06.00 to 20.00 h), at least 10 days before starting the experiments. A standard dry diet and water were available ad libitum.
(§2) Between 09.00-10.00 h rats were anesthetized with ketamine (58 mg/kg, Inoketam, VIRBAC, Milano) and xilazine (12 mg/kg, Rompun, Bayer, Milano). Thirty minutes later, a blood sample ([…]) was withdrawn from the exposed jugular vein, peptides were injected intravenously or subcutaneously, and further blood samples were collected 10, 20 and 30 minutes later.
(§3) Medium and plasma GH was measured by radioimmunoassay using materials supplied by the NIADDK Bethesda, Md. Values were expressed in term of NIASSK-rat-GH-RP-2 standard (potency 2 IU/ml), as ng/ml of medium or plasma.
(§4) The minimum detectable value of rat was 1.0 ng/ml; intra-assay variability was 6%. To avoid inter-assay variation, samples from each experiment were assayed simultaneously.

[3] = Acute cardiovascular toxicity in the rat, single i.v. dose, mortality; format: in vivo; conditions: observed up to 4 hours
Procedure: These two peptides were also tested for acute cardiovascular toxicity in the rat.
Dosages were calculated on the basis of the declared peptide content in each product, as specified below:
A single dose of HEXARELIN or GHRP-6 was administered to rats in different calendar dates in such a way that each group/dose should be treated in two subsequent days.
For each compound, appropriate amounts of solutions in 0.9% NaCl for injection were prepared just before treatment at the suitable concentrations. The solutions were sterilized by filtration (Millipore filter, pore size 0.22 μm). Owing to the type of the study (acute study) in which formulates were administered just after preparation, stability checks were not performed. Concentration checks were also not performed. The volume of solution injected was maintained constant at 1 ml/Kg.
The intravenous injections were done as a single dose in one vein of the tail with an appropriately gauged sterile, disposable, plastic syringe. The injection rate was about 0.1 ml/sec.
Periodical observations were made up to 4 hours after treatment. Abnormality and mortality were recorded. Body weight was recorded once during pre-trial and on the administration day to calculate the volumes to be injected.

GH release [4] = assay: GH release in pentobarbital-anesthetized rats, s.c.; format: in vivo, Sprague Dawley rats
Procedure: Male Sprague Dawley rats weighing 225-250 g were divided in groups of five animals each. Rats were anesthetized with Nembutal injected intraperiteonally at 50 mg/kg, fifteen minutes prior to the first blood withdrawal taken over heparin by cardiac puncture (for determination of basal GH).
Subcutaneous injections of either HEXARELIN or GHRP-6 were given immediately after the first blood collection, and additional blood samples were collected 15 and 40 minutes later.
Measurement of rat GH was performed by a standard double antibody radioimmunoassay with reagents supplied by the National Pituitary Agency and the National Institute of Arthritis, Diabetes, and Digestive and Kidney Diseases. The standards used were NIADDK-NIH-rGH-RP-2. Statistical data were obtained with the Student's t Test at a significance level of 5%.

[5] = tested on: pituitary cell monolayers; assay: GH-releasing activity in pituitary cell culture (monolayers); format: cell-based, Sprague Dawley rats; conditions: for GH in medium: 2 hours incubation
Procedure: as §1
Pituitary tissue used for cell dissociation included only the anterior lobe. Briefly, pituitary glands were collected in sterile F-10 medium and after cutting into small fragments incubated twice (30 minutes each) at 37° C. in F-10 medium containing 6% fetal calf serum and collagenase (2.5 mg/ml) (Boehringer, Mannheim GmbH, Germany). Fragments were then washed in Dulbecco's PBS, Ca^2+ and Mg^2+ free medium and mechanically dissociated. Single cell suspension was planted onto 24-well (2×10^5 cells/well) culture plates. The cells were incubated in F-10 medium supplemented with 10% horse serum, 4% fetal calf serum and gentamycin (25 μg/ml), in a humidified atmosphere of 5% CO2 and 95% air at 37° C.
After 3 days, the medium was removed and the cells washed twice with serum free F-10, then incubated with 1 ml of F-10 containing 0.1% BSA only, or with added various concentrations of synthetic peptides.
After incubation for 2 h at 37° C., media were collected and stored frozen at -20° C. until assayed for measurement of GH content.
as §3, §4

GH release [6] = assay: GH response in conscious, freely-moving rats after antiserum pretreatment and i.v. peptide; format: in vivo; conditions: i.v. 25 μg/kg peptide, pooled over antiserum pretreatments
Procedure: Sixty male rats were prepared with indwelling venous catheters under ether anesthesia three days before experimentation. On the day of experimentation, all animals were given an iv heparin injection (100 IU; 0630 h). At 0700 h, animals were treated with 0.5 ml of either normal serum (control-as), somatostatin antiserum (somatostatin-as; 0.25 ml+0.25 ml saline), growth hormone-releasing hormone antiserum (GHRH-as; 0.25 ml+0.25 ml saline), or both somatostatin antiserum and growth hormone-releasing hormone antiserum (0.25 ml somatostatin-as+0.25 ml GHRH-as). Blood sampling began […] after antiserum pretreatment, with blood samples collected every 20 minutes for three hours. After the 180 minute sample (1100 h), animals were treated iv with 25 μg/kg of either Hexarelin or GHRP-6. Blood samples were then collected at 5, 10, 15, 20 30, 40, and 60 minutes after peptide treatment. All samples were centrifuged immediately and the plasma frozen until assayed. The peak GH response to Hexarelin and GHRP-6 as well as the area under the response curves (AUCs) for the thirty minutes following peptide injection were calculated. Data were subjected to repeated measures analysis of variance and are expressed as mean ±SEM.

GH release [7] = assay: GH-releasing activity s.c. in male rats anesthetized with ketamine and xilazine; format: in vivo, Sprague Dawley rats
Procedure: as §1, §2, §3, §4

plasma testosterone = format: in vivo, Beagle dogs
From the text: After an initial flare-up, plasma testosterone fell below castration levels after approximately 10 days, and was maintained for approximately 180 days.

[8] = PLGA implant rods, 20 or 25% loading (7 or 10 mg), subcutaneous

## N[C@H](Cc1c[nH]c2ccccc12)C(=O)O [D-Trp, D-Tryptophan, reference compound]
[1]
  time the compound is stable in solution (HPLC peak area): about 20 days

## Cc1[nH]c2ccccc2c1C[C@@H](N)C(=O)O [Example 1, 2-methyl-D-tryptophan]
[1]
  time the compound is stable in solution (HPLC peak area): ≥ 60 days

## GHRP-6 [reference compound]
GH release [2]; i.v. 150 μg/kg, 10 min
  plasma GH: 394.0 ± 31.0 ng/mL
GH release [2]; i.v. 150 μg/kg, 20 min
  plasma GH: 139.3 ± 10.2 ng/mL
GH release [2]; i.v. 150 μg/kg, 30 min
  plasma GH: 42.5 ± 4.5 ng/mL
GH release [2]; i.v. 150 μg/kg, time 0 min (before injection)
  plasma GH: 30.2 ± 7.8 ng/mL
GH release [2]; i.v. 300 μg/kg, 10 min
  plasma GH: 413.6 ± 21.5 ng/mL
GH release [2]; i.v. 300 μg/kg, 20 min
  plasma GH: 162.7 ± 22.1 ng/mL
GH release [2]; i.v. 300 μg/kg, 30 min
  plasma GH: 38.2 ± 7.7 ng/mL
GH release [2]; i.v. 300 μg/kg, time 0 min (before injection)
  plasma GH: 21.9 ± 4.4 ng/mL
GH release [2]; i.v. 600 μg/kg, 10 min
  plasma GH: 542.0 ± 38.0 ng/mL
GH release [2]; i.v. 600 μg/kg, 20 min
  plasma GH: 195.5 ± 11.0 ng/mL
GH release [2]; i.v. 600 μg/kg, time 0 min (before injection)
  plasma GH: 21.2 ± 6.1 ng/mL
[3]; single i.v. dose 2.5 mg/kg
  Dead rats/Total N° of rats per group: 0/6
[3]; single i.v. dose 5.0 mg/kg
  Dead rats/Total N° of rats per group: 1/6
[3]; single i.v. dose 7.5 mg/kg
  Dead rats/Total N° of rats per group: 2/6
GH release [4]; s.c. 25 μg/kg, 0 min (basal)
  POST-DRUG PLASMA GH: 41 ± 16 ng/mL
GH release [4]; s.c. 25 μg/kg, 15 min
  POST-DRUG PLASMA GH: 222 ± 95 ng/mL
GH release [4]; s.c. 25 μg/kg, 40 min
  POST-DRUG PLASMA GH: 110 ± 47 ng/mL
GH release [4]; s.c. 50 μg/kg, 0 min (basal)
  POST-DRUG PLASMA GH: 57 ± 39 ng/mL
GH release [4]; s.c. 50 μg/kg, 15 min
  POST-DRUG PLASMA GH: 262 ± 58 ng/mL
GH release [4]; s.c. 50 μg/kg, 40 min
  POST-DRUG PLASMA GH: 97 ± 44 ng/mL
[5]; 10^-6 M
  GH in medium: 510.0 ± 12.0 ng/well
[5]; 10^-7 M
  GH in medium: 526.5 ± 19.0 ng/well
[5]; 10^-8 M
  GH in medium: 544.2 ± 23.9 ng/well
[5]; 10^-8 to 10^-6 M, two hours
  GH secretion versus basal: stimulation of GH secretion over basal secretion
GH release [6]
  Mean GH: 131 ± 13 ng/mL
  Peak GH: 293 ± 41 ng/mL
GH release [6]; thirty minutes following injection
  GH AUC: 4220 ± 665 ng/ml/30 min
GH release [7]; s.c. 150 μg/kg, 10 min
  plasma GH: 63.1 ± 11.0 ng/mL
GH release [7]; s.c. 150 μg/kg, 20 min
  plasma GH: 110.4 ± 18.0 ng/mL
GH release [7]; s.c. 150 μg/kg, 30 min
  plasma GH: 77.2 ± 14.0 ng/mL
GH release [7]; s.c. 150 μg/kg, time 0 min (before injection)
  plasma GH: 20.0 ± 5.0 ng/mL
GH release [7]; s.c. 300 μg/kg, 10 min
  plasma GH: 63.9 ± 12.8 ng/mL
GH release [7]; s.c. 300 μg/kg, 20 min
  plasma GH: 123.4 ± 14.6 ng/mL
GH release [7]; s.c. 300 μg/kg, 30 min
  plasma GH: 87.7 ± 11.8 ng/mL
GH release [7]; s.c. 300 μg/kg, time 0 min (before injection)
  plasma GH: 20.0 ± 6.0 ng/mL
GH release [7]; s.c. 600 μg/kg, 10 min
  plasma GH: 93.1 ± 22.3 ng/mL
GH release [7]; s.c. 600 μg/kg, 20 min
  plasma GH: 167.1 ± 14.7 ng/mL
GH release [7]; s.c. 600 μg/kg, 30 min
  plasma GH: 107.8 ± 9.5 ng/mL
GH release [7]; s.c. 600 μg/kg, time 0 min (before injection)
  plasma GH: 18.0 ± 4.0 ng/mL

## Pyro-Glu-His-Ser-Tyr-D-2-alkyl-Trp-Leu-Arg-Pro-NHCH2 CH3 [Example 3]
Plasma testosterone; [8]
  time plasma testosterone was maintained below castration levels: approximately 180 days
  time until plasma testosterone fell below castration levels: approximately 10 days
Plasma testosterone; day 145 after implant
  response to stimulation by i.v. administration of the peptide: absence of response
Plasma testosterone; dog, in vivo, sc
  clinical side effects: No clinical side effects were observed
